Measured values: patent US7491507B2, “Process for preparing peptides with anti-hypertensive properties” (Chr. Hansen A/S, priority 2002, dated 2009)

Tested on: Spontaneously Hypertensive Rats (SHR)
Test: In vivo test of anti-hypertensive properties: systolic blood pressure by plethysmography in conscious SHR after gavage
Design: species or system rat
Conditions: gavage 2 ml of product (Enalapril 20 mg/kg in milk)
Protocol: Strains were streaked on MRS agar and incubated anaerobically for 48 h at 37° C. A single colony was picked, inoculated into MRS broth and grown overnight at 37° C. Stock cultures were prepared from this overnight culture and were stored at −80° C. in 20% glycerol. The strains were precultivated in milk overnight and inoculated 1% (v/v) in fresh milk for the fermentation.
The milk was fermented with the strains of single or mixed cultures for 16 hours with an inoculation level of 1% (v/v). The total product was freeze-dried. A second fermentation, with the same conditions as the first one, was centrifuged. The pellet was discarded and the whey was filtered through a […] filter and frozen. The whey was used to solubilize the freeze-dried powder to concentrate it with a factor 5 before feeding the rats.
Spontaneously Hypertensive Rats (SHR) was obtained from IFFA CREDO (a Charles River company), Lyon, France. […]
Systolic blood pressure was determined by plethysmography in conscious SHR before as well as […] after gavages, at the different times described below. […]
Systolic blood pressure of Group 1 was determined parallel to those of groups 2 and 3 and serves as control.
The day of the gavage systolic blood pressure was determined before as well as 6 and 24 hours after gavage.

CCOC(=O)[C@H](CCc1ccccc1)N[C@@H](C)C(=O)N1CCC[C@H]1C(=O)O [Enalapril]
variation of systolic blood pressure (5 hours after administration): −30
variation of systolic blood pressure (24 hours after administration): −17
